From BindingDB's records for doi:10.7270/Q21N7ZQ4 (Johns Hopkins Ion Channel Center, 2012) come the findings set out here.

The experiment addresses T1, High affinity choline transporter 1 (Homo sapiens, UniProt Q9GZV3).
T1 sequence (Q9GZV3 whole entry): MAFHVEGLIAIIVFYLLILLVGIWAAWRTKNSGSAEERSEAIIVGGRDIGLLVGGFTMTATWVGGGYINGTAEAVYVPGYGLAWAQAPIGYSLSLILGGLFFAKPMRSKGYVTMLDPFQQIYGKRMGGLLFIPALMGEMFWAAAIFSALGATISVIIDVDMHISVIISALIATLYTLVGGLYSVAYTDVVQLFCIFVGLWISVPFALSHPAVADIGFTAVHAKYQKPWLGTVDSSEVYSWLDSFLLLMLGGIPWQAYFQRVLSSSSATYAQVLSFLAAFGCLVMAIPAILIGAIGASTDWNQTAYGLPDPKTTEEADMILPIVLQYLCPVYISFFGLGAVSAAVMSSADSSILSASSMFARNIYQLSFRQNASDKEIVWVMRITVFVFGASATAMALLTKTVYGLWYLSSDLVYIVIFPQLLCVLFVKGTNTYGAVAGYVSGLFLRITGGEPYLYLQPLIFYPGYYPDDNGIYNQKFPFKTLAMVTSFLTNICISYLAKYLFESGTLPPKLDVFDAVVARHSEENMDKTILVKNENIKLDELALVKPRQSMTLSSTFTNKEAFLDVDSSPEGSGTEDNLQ
Put plainly: human choline transporter potentiators, potency – cell-based, 10-point CRC, membrane potential dye, dose response (AID 602376).

Structures are written as SMILES. pEC50: −log10 of the molar value.

In the case of `COc1cc(C2c3ccc(N)cc3OC(=N)C2C#N)cc(OC)c1OC` (configuration not stated) [2,7-bis(azanyl)-4-(3,4,5-trimethoxyphenyl)-4H-chromene-3-carbonitrile], the pEC50 is 4.87.

As for `CCOC(=O)c1ccc(-[n+]2c(-c3ccccc3)cc(-c3ccccc3)cc2-c2ccccc2)cc1` [MLS001242871], the pEC50 was 4.85.
